# Test results from publication PMC2363125 (British Journal of Cancer, 1999).
# “And” between values parts separate entries of the source, which are not always exact repeats. Equal entries are not always repeated. “Also recorded” adds a separate entry of the source.
# Columns and labels:
# [1] = test system: L1210 cells; assay: cells; conditions: for CC50: Mus musculus, L1210, 16 h, read-out: LC50; for reduction of nolatrexed LC90: absence of salvageable thymidine, abstract
# Source text: (§1) In particular, inhibition of thymidylate synthase (TS) is an attractive target for antimetabolite chemotherapy because thymine is the only nucleobase found exclusively in DNA and TS is a key enzyme, possibly the rate-limiting step, in DNA synthesis. One locus of action of 5-fluorouracil (5-FU), which is widely used for the treatment of colorectal, breast and head-and- neck cancer, is TS inhibition following its intracellular conversion to 5-FdUMP. […] Inhibition of TS results in the depletion of intracellular dTTP and, as a result of elevated dUMP levels, an accummulation of dUTP. […] In addition, release of nucleic acids from dead cells may result in high local concen- trations of salvageable nucleosides and bases in tumours. Salvage of pre-formed nucleosides is dependent on uptake across the plasma membrane into the cell. At physiological nucle- oside concentrations the principal mode of nucleoside uptake is via the es and ei equilibrative carriers, described as such on the basis of their sensitivity (es) or insensitivity (ei) to the transport inhibitor nitrobenzylmercaptopurine riboside (NBMPR). […] In addition, potentiation of the cytotoxicity of 5-FU was investigated. […] All other chemicals were obtained from Sigma unless stated otherwise. […] For growth inhibition and cytotoxicity assays, cells were adapted to grow in RPMI medium supplemented with 10% (v/v) dialysed serum (dialysed for 24 h at 4C against two changes of 9 volumes of phosphate-buffered saline (PBS) containing 1 g activated charcoal L-1 and a further two changes of 9 volumes of PBS) to remove thymidine. […] The uptake of 100 M thymidine by […] was followed at 2-second intervals over a 12-second time course in the presence or absence of inhibitor in 1% or 5% (v/v) DMSO. […] Exponentially growing L1210 cells were washed with and resus- pended in ice-cold transport buffer (130 mM sodium chloride, 5 mM potassium chloride, 1 mM magnesium chloride, 5 mM NaH2 PO4 , 10 mM glucose and 10 mM HEPES pH 7.4) at 2-4 x 10^7 cells ml-1 . […] Transport was initiated by adding 50 l of 300 M thymidine in transport buffer, containing 25 Ci ml-1 [methyl-3 H]thymidine (Sp. Act. 1.5-2.2 TBq mmol-1; Amersham, UK) and 2 Ci ml-1 [U-14 C]sucrose (17-27 GBq mmol-1; Amersham), to each tube in turn at 1-second intervals, giving final concentrations of: […] in transport buffer 5 mg ml-1 AGP, 100 M thymidine and 1% or 5% (v/v) DMSO inhibitor. […] The tubes were immediately centrifuged at 12 000g for 2 min at room temperature causing the cells to pass through the oil and into the KOH. […] Cell number and viability in each assay was determined by haemocytometer counting using trypan blue exclu- sion. After centrifugation the tubes were capped and cut in the oil layer such that the bottom portion (cells solubilized in KOH) fell into a 20 ml scintillation vial. […] The rate of thymidine uptake in the presence and absence of inhibitor was calculated by unweighted linear regres- sion analysis of thymidine uptake (pmol 10-6 cells) vs time (seconds) using GraphPad PRISMTM software (GraphPad Software Inc. San Diego, CA, USA). […] Kt and Tmax values were calculated using the equation describing a one-site binding hyperbola, fitted using GraphPad PRISM software. […] The DMSO concentration was controlled so as to be present at 1% (v/v) in the final incubation. Replicate aliquots of the remaining cell suspension were counted to obtain a time zero cell count.
# [2] = test system: L1210 cells; assay: Growth inhibition assay, CB3717 with or without thymidine and transport inhibitor, 48 h cell count; format: cell-based, murine; conditions: for potentiation of CB3717 growth inhibition / reversal of thymidine rescue from CB3717 growth inhibition: 1 μM transport inhibitor, data not shown; for % Control cell growth + 3 M CB3717, + 1 M TdR / % Control cell growth + 3 M CB3717, no TdR / % Control cell growth + 10 M CB3717, + 1 M TdR / % Control cell growth + 10 M CB3717, no TdR: 10 μM transport inhibitor, normalized to inhibitor alone
# [3] = test system: thymidine transport (nucleoside transporter) in L1210 cells; assay: Inhibition kinetics of thymidine transport (Kt, Tmax, Dixon plot Ki); conditions: for Ki: read-out: Ki for inhibition of thymidine uptake, L1210, abstract
# Source text: as §1
# [4] = in vitro; conditions: mouse
# Source text: as §1
# [5] = test system: thymidine uptake (nucleoside transport, es and ei equilibrative carriers) in L1210 cells; assay: Nucleoside transport inhibition assay (thymidine uptake, rapid mixing technique); format: cell-based, murine; conditions: for IC50: absence of AGP, point-to-point curve; for IC50 / % inhibition of thymidine uptake: L1210
# Source text: Antimetabolite inhibitors of de novo purine and pyrimidine synthesis are used extensively in cancer chemotherapeutic regimes (Schilsky, 1992). In particular, inhibition of thymidylate synthase (TS) is an attractive target for antimetabolite chemotherapy because thymine is the only nucleobase found exclusively in DNA and TS is a key enzyme, possibly the rate-limiting step, in DNA synthesis. One locus of action of 5-fluorouracil (5-FU), which is widely used for the treatment of colorectal, breast and head-and- neck cancer, is TS inhibition following its intracellular conversion to 5-FdUMP. […] Inhibition of TS results in the depletion of intracellular dTTP and, as a result of elevated dUMP levels, an accummulation of dUTP. This nucleotide pool imbalance contributes to DNA strand breakage and cell death (Curtin et al, 1991). […] Furthermore, resistance to antimetabolities mediated by nucleoside salvage may increase with malignancy (Fox et al, 1991; Kinsella and Harran, 1991). In addition, release of nucleic acids from dead cells may result in high local concen- trations of salvageable nucleosides and bases in tumours. Salvage of pre-formed nucleosides is dependent on uptake across the plasma membrane into the cell. At physiological nucle- oside concentrations the principal mode of nucleoside uptake is via the es and ei equilibrative carriers, described as such on the basis of their sensitivity (es) or insensitivity (ei) to the transport inhibitor nitrobenzylmercaptopurine riboside (NBMPR). […] Two antifolate TS inhibitors were selected for study: the classical antifolate, CB3717 (N10 -pro- pargyl-5,8-dideazafolic acid), and the non-classical antifolate TS inhibitor, nolatrexed (AG337, Thymitaq, 3,4-dihydro-2-amino- 6-methyl-4-oxo-5-(4-pyridylthio)-quinazoline dihydrochloride) (Webber et al, 1996). In addition, potentiation of the cytotoxicity of 5-FU was investigated. […] MATERIALS AND METHODS Drugs CB3717 (a gift from Zeneca Pharmaceuticals, Alderley Park, UK) was dissolved in 0.15 M sodium hydrogen carbonate and stored at 4C. […] All other chemicals were obtained from Sigma unless stated otherwise. Cell culture Murine leukaemia L1210 cells were used because their nucleoside transport characteristics have been well defined (Crawford et al, 1990). Cells were maintained as exponentially growing cultures (< 8 x 10^5 cells ml-1 ) in RPMI-1640 medium supplemented with 10% (v/v) fetal calf serum (Sigma), at 37C in an atmosphere of 5% carbon dioxide in air. […] For growth inhibition and cytotoxicity assays, cells were adapted to grow in RPMI medium supplemented with 10% (v/v) dialysed serum (dialysed for 24 h at 4C against two changes of 9 volumes of phosphate-buffered saline (PBS) containing 1 g activated charcoal L-1 and a further two changes of 9 volumes of PBS) to remove thymidine. […] Cells were routinely tested to exclude mycoplasma contamination (Chen, 1977). Nucleoside transport inhibition assay Thymidine uptake was assayed in L1210 cells using a modifica- tion of the rapid mixing technique of Wohlheuter et al (1978). The uptake of 100 µM thymidine by […] was followed at 2-second intervals over a 12-second time course in the presence or absence of inhibitor in 1% or 5% (v/v) DMSO. In experiments to determine the effect of AGP, the uptake of thymidine was also measured in the presence of 5 mg ml-1 human AGP (Sigma), which is the upper limit of plasma AGP concentrations in cancer patients, i.e. approx- imately 125 M (Kremer et al, 1988).
# [6] = test system: human cancer cell lines; parameters: method as in P Smith, manuscript in preparation; conditions: ref P Smith, manuscript in preparation; cited from earlier work
# [7] = LC50 alone/LC50 + 1 μM inhibitor
# [8] = inhibitor 1 μM, no AGP, 100 μM thymidine
# [9] = inhibitor 10 μM + 5 mg ml-1 AGP
# [10] = inhibitor 10 μM, no AGP, 100 μM thymidine
Compound,potentiation of CB3717 growth inhibition [2],"% Control cell growth + 3 M CB3717, + 1 M TdR ([2]; 48 h)","% Control cell growth + 3 M CB3717, no TdR ([2]; 48 h)","% Control cell growth + 10 M CB3717, + 1 M TdR ([2]; 48 h)","% Control cell growth + 10 M CB3717, no TdR ([2]; 48 h)",IC50 [5],"% inhibition of thymidine uptake [5, 8]","% inhibition of thymidine uptake [5, 9]","% inhibition of thymidine uptake [5, 10]",other results
"O=c1[nH]cc(F)c(=O)[nH]1 [5-FU, 5-fluorouracil]",–,–,–,–,–,–,–,–,–,CC50 [1]: 3.7 µM
"C#CCN(Cc1ccc2nc(N)[nH]c(=O)c2c1)c1ccc(C(=O)N[C@@H](CCC(=O)O)C(=O)O)cc1 [CB3717, N10-propargyl-5,8-dideazafolate, reference compound]",–,–,–,–,–,–,–,–,–,"% Control cell growth, 3 M CB3717, + 1 M TdR ([2]; No inhibitor, 48 h): 104%; % Control cell growth, 3 M CB3717, no TdR ([2]; No inhibitor, 48 h): 40%; % Control cell growth, 10 M CB3717, + 1 M TdR ([2]; No inhibitor, 48 h): 107%; % Control cell growth, 10 M CB3717, no TdR ([2]; No inhibitor, 48 h): 5%"
"OCCN(CCO)c1nc(N2CCCCC2)c2nc(N(CCO)CCO)nc(N3CCCCC3)c2n1 [Dipyridamole, 2,6-bis-(diethanolamino)-4,8-di-piperidino-pyrimidopyrimidine]",modest potentiation,4%,4%,1%,0%,–,–,–,–,"type of inhibition of thymidine uptake ([3]; L1210): mixed-type inhibition; apparent Tmax of thymidine transport ([3]; in the presence of 0.3 μM inhibitor, L1210): 8.4 pmol/10-6 cells/s; Ki [3]: 280 nM; activity at 16 h, 1 µM [4]: 100%; EF50 (enhancement factor), nolatrexed [1, 7]: 1.3; EF90 (enhancement factor), nolatrexed ([1]; LC90 alone/LC90 + 1 μM inhibitor, listed as DP): 7.5 and 6.1; reduction of nolatrexed LC90 [1]: > threefold; potentiation of 5-FU cytotoxicity ([1]; mouse): Significant potentiation; reversal of thymidine rescue from CB3717 growth inhibition [2]: partial reversal"
"CC1(C)OCC(COc2nc(N3CCCCC3)c3nc(OCC4COC(C)(C)O4)nc(N4CCCCC4)c3n2)O1 (centres unmarked) [NU3026, 2,6-di-(2,2-dimethyl-1,3-dioxolan-4-yl)-methoxy-4,8-di-piperidinopyrimido-pyrimidine]",modest potentiation,26%,8%,20%,1%,1200 nM and 1100 nM,47%,62%,87%,–
"COCC(COc1nc(N2CCCCC2)c2nc(OCC(COC)OC)nc(N3CCCCC3)c2n1)OC (centres unmarked) [NU3059, 2,6-bis-(2,3-dimethoxypropoxy)-4,8-di-piperidino-pyrimidopyrimidine]",modest potentiation,10%,5%,7%,0%,1900 nM,38%,67%,87%,reversal of thymidine rescue from CB3717 growth inhibition [2]: partial reversal
"COCCN(CCOC)c1nc(N2CCCCC2)c2nc(N(CCOC)CCOC)nc(N3CCCCC3)c2n1 [NU3060, 2,6-bis[N,N-di(2-methoxy)ethyl]-4,8-di-piperidino-pyrimidopyrimidine]",–,59%,29%,37%,3%,2100 nM,29%,43%,86%,–
COc1ccc(CNc2nc(N(CCO)CCO)nc3c(NCc4ccc(OC)cc4)nc(N(CCO)CCO)nc23)cc1 [NU3076],–,–,–,–,–,250 nM,56%,89%,96%,"block of thymidine rescue from TS inhibitor cytotoxicity [6]: can block thymidine rescue; type of inhibition of thymidine uptake ([3]; L1210): mixed-type inhibition; Ki [3]: 100 nM; cell survival, inhibitor alone (cytotoxic per se) ([1]; 1 μM inhibitor alone, L1210): 100%; prevention of thymidine rescue from nolatrexed cytotoxicity ([1]; 1 μM inhibitor, 10 μM nolatrexed + 1 μM thymidine): partially blocked; also recorded: reduced but not blocked completely; potentiation of 5-FU cytotoxicity ([1]; 1 μM inhibitor, high 5-FU concentrations (30 and 100 μM), not significant at lower concentrations): Significant potentiation; EF50 (enhancement factor), 5-FU [1, 7]: 1.1; EF50 (enhancement factor), nolatrexed [1, 7]: 1.6; EF90 (enhancement factor), 5-FU ([1]; LC90 alone/LC90 + 1 μM inhibitor): 1.3; reduction of nolatrexed LC90 [1]: > threefold; effect of AGP on inhibition of thymidine uptake ([5]; AGP 5 mg ml-1, inhibitor 1 and 10 μM): not significantly affected; % inhibition of thymidine uptake ([5]; inhibitor 1 μM + 5 mg ml-1 AGP): 46%"
"Cc1ccc2nc(N)[nH]c(=O)c2c1Sc1ccncc1.Cl.Cl [Nolatrexed, 3,4-dihydro-2-amino-6-methyl-4-oxo-5-(4-pyridylthio)-quinazoline dihydrochloride]",–,–,–,–,–,–,–,–,–,"effect of 1 μM thymidine on cytotoxic effect of 10 μM nolatrexed [1]: completely prevented; cells surviving ([1]; 10 μM nolatrexed alone, 16 h): 10-20%; CC50 [1]: 3.1 µM"
